Format in all cases: cell-based
In assay [1] the test system is Wnt activity (Sp5-Luc reporter, SW480 colon carcinoma cells). In words: Screening assay for Wnt activity (Sp5-Luc reporter gene assay in SW480 cells). The settings on record: Homo sapiens; for inhibition at 10 µM: SW480, read-out: percent inhibition at 10 μM; for EC50: Sp5-Luc reporter, SW480 cells, incubated overnight. The source says: The screening assay for Wnt activity is described as follows. Reporter cell lines can be generated by stably transducing cancer cell lines (e.g., colon cancer) or primary cells (e.g., IEC-6 intestinal cells) with a lentiviral construct that includes a Wnt-responsive promoter driving expression of the firefly luciferase gene.
SW480 colon carcinoma cells were transduced with a lentiviral vector expressing luciferase with a human Sp5 promoter consisting of a sequence of eight TCF/LEF binding sites. SW480 cells stably expressing the Sp5-Luc reporter gene and a hygromycin resistance gene were selected by treatment with 150 μg/mL of hygromycin for 7 days. These stably transduced SW480 cells were expanded in cell culture and used for all further screening activities. […] For Sp5-Luc reporter gene assays, the cells were plated at 4,000 cells/well in 384-well plates with medium containing 1% fetal bovine serum and incubated overnight at 37° C. and 5% CO2. Following incubation, 20 μl of BrightGlo luminescence reagent (Promega) was added to each well of the 384-well assay plates. The plates were placed on an orbital shaker for 2 min and then luminescence was quantified using the Envision (Perkin Elmer) plate reader. Readings were normalized to DMSO only treated cells, and normalized activities were utilized for EC50 calculations using the dose-response log (inhibitor) vs. response-variable slope (four parameters) nonlinear regression feature available in GraphPad Prism 5.0 (or Dotmatics).
(Reporter assays use an easily measured gene product as a stand-in for the process of interest.)

Assay [2] relates to primary human fibroblasts derived from IPF patients (LL29 cells) treated with TGF-β1. Nature of the assay: Inhibition of the fibrotic process (αSMA staining) in TGF-β1-treated fibroblasts. The settings on record: Fibroblast, 96 h; for EC50: % αSMA-positive LL29 cells, TGF-β1 20 ng/mL, 4 days. As to the method:
Representative compounds were screened using primary human fibroblasts (derived from IPF patients) treated with TGF-β1 to determine their ability to inhibit the fibrotic process.
LL29 cells are plated at 1,500 cells/well in 80 μL/well F12 medium supplemented with 1% Fetal Bovine Serum. […] Wells treated with TGF-P1 and containing DMSO were used as controls. […] Following incubation for 4 days, SYTOX green nucleic acid stain (Life Technologies [Thermo Fisher Scientific]) was added to the wells at a final concentration of 1 μM and incubated at room temperature for 30 min.

Assay [3] relates to IL-6 (THP-1 cells). Nature of the assay: IL-6 inhibition in LPS-stimulated THP-1 cells (HTRF). The settings on record: Homo sapiens; for EC50: IL6 by HTRF, THP-1 cells, 500 ng/mL LPS, 22 hours; for inhibition at 10 µM: THP-1, read-out: percent inhibition at 10 M. As to the method:
THP-1 cells were cultured in basal media with 1% FBS for 24 hours before the start of the assay. […] THP-1 cells were plated at 5000 cells/well in the 384-well plates and incubated at 37° C. for 2 h. 500 ng/mL of LPS was added after 2 hours and cells were incubated for another 22 hours at 37° C. Plates were spun in a centrifuge for 1 minute at […] and a mixture of anti-IL6 XL665, and anti-IL6 Cryptate diluted in reconstitution buffer (Cisbio Inc.) was added to each well. Following incubation for 3 hrs at room temperature, Homogeneous Time-Resolved Fluorescence (HTRF) was measured using the Envision (Perkin Elmer) at 665 nm and […]. The ratio of fluorescence at 665 nm to 620 nm was used as a readout for IL6 quantification. All samples were processed in duplicate. Readings were normalized to DMSO treated cells and normalized activities were utilized for EC50 calculations using the dose-response log (inhibitor) vs. response-variable slope (four parameters) nonlinear regression feature available in GraphPad Prism 5.0 (or Dotmatics).
On the technique in general: TR-FRET usually uses a lanthanide donor and a delayed reading to cut background.

Assay [4] deals with SW480 colon cancer cells. Nature of the assay: Cell viability assay (CellTiter-Blue). The settings on record: Homo sapiens; for EC50: 96 h, SW480 cell viability, four days, CellTiter-Blue; for inhibition at 10 µM: SW480, 96 h, read-out: percent inhibition at 10 μM. As to the method:
Representative compounds were screened using the following assay procedure to assess the effect on cell viability as described below.
Approximately 2×10^3 SW480 colon cancer cells were seeded into each well and allowed to incubate in the presence or absence of compound for four days at 37° C./5% CO2. Eight replicates of DMSO-treated cells served as controls and cells treated with compound were performed in duplicate.
After incubation, 20 μL of CellTiter-Blue (Promega) was added to each well allowed to incubate for approximately 3 hours. This reagent was a buffered solution which contains resazurin, metabolically active cells were able to reduce rezarurin (blue) into resorufin (pink) which was highly fluorescent. This measured fluorescence was used as a readout for cell viability.
For orientation: Resazurin is reduced to fluorescent resorufin, in cell work by metabolically active cells.

SMILES strings stand for the structures. Where only a bound is given, the exact number is not on record here.

As to `CN1CCN(c2nccc3[nH]c(-c4n[nH]c5ccc(-c6cncc(NC(=O)C7CCCC7)c6)cc45)cc23)CC1` [Compound 246, N-(5-(3-(4-(4-Methylpiperazin-1-yl)-1H-pyrrolo[3,2-c]pyridin-2-yl)-1H-indazol-5-yl)pyridin-3-yl)cyclopentanecarboxamide], the results for the inhibition at 10 µM in assay [1], in assay [2] (read-out: percent inhibition at 10 μM) and in assay [4] were 17.1%, 0% and 34.3%, respectively. Also, the EC50 (in general, the concentration needed to bring the measured effect to its halfway point) in assay [1] was greater than 10000 nM; in assay [2], greater than 10000 nM; in assay [3], 9510 nM; in assay [4] it was greater than 10000 nM.

On to `CN1CCN(c2nccc3[nH]c(-c4n[nH]c5ccc(-c6cncnc6)cc45)cc23)CC1` [Compound 251, 3-(4-(4-Methylpiperazin-1-yl)-1H-pyrrolo[3,2-c]pyridin-2-yl)-5-(pyrimidin-5-yl)-1H-indazole], for which the inhibition (as a rule, the percentage by which the read-out fell short of the control) at 10 µM in assay [1] was 20.2%; in assay [4], 20%. The EC50 in assay [1] was greater than 10000 nM; in assay [2], 9700 nM; in assay [3], 8260 nM; in assay [4], greater than 10000 nM.

With `CN1CCN(c2nccc3[nH]c(-c4n[nH]c5ccc(-c6ccccn6)cc45)cc23)CC1` [Compound 252, 3-(4-(4-Methylpiperazin-1-yl)-1H-pyrrolo[3,2-c]pyridin-2-yl)-5-(pyridin-2-yl)-1H-indazole], the inhibition at 10 µM in assay [1] turned out to be 18.8%. Further, the EC50 in assay [1] was greater than 10000 nM; in assay [2] it was 1460 nM; in assay [3], 2750 nM; in assay [4] it was 4690 nM.

For `CCCC(=O)Nc1cncc(-c2ccc3[nH]nc(-c4cc5cnccc5[nH]4)c3c2)c1` [Compound 269, N-(5-(3-(1H-Pyrrolo[3,2-c]pyridin-2-yl)-1H-indazol-5-yl)pyridin-3-yl) butyramide], the EC50 in assay [1] worked out at 105 nM; in assay [2] it was 149 nM; in assay [3], 154 nM; in assay [4], 455 nM.

For the compound `c1cncc(-c2ccc3[nH]nc(-c4cc5c(-c6ccsc6)nccc5[nH]4)c3c2)c1` [Compound 284, 5-(Pyridin-3-yl)-3-(4-(thiophen-3-yl)-1H-pyrrolo[3,2-c]pyridin-2-yl)-1H-indazole], the EC50 in assay [1] was 1250 nM; in assay [2], 648 nM; in assay [3] it was 1100 nM; in assay [4], 661 nM.

Consider `c1ccc(-c2ccc3[nH]nc(-c4cc5c(-c6cccs6)nccc5[nH]4)c3c2)nc1` [Compound 364, 5-(Pyridin-2-yl)-3-(4-(thiophen-2-yl)-1H-pyrrolo[3,2-c]pyridin-2-yl)-1H-indazole], for which the EC50 was 2220 nM in assay [1], 1770 nM in assay [2], greater than 10000 nM in assay [3] and 1900 nM in assay [4]. For the same compound, in assay [3], the inhibition at 10 µM amounted to 44%.

For the compound `CC(C)CC(=O)Nc1cncc(-c2ccc3[nH]nc(-c4cc5c(-c6cc(F)cc(CNS(C)(=O)=O)c6)nccc5[nH]4)c3c2)c1` [Compound 478, N-(5-(3-(4-(3-Fluoro-5-(methylsulfonamidomethyl)phenyl)-1H-pyrrolo[3,2-c]pyridin-2-yl)-1H-indazol-5-yl)pyridin-3-yl)-3-methylbutanamide], the concentration for a half-maximal effect (EC50) in assay [1] is 581 nM; in assay [2] it was 2370 nM; in assay [3] it was 115 nM; in assay [4], 1070 nM.

Consider `CS(=O)(=O)NCc1cc(F)cc(-c2nccc3[nH]c(-c4n[nH]c5ccc(-c6cncc(NC(=O)C7CC7)c6)cc45)cc23)c1` [Compound 496, N-(5-(3-(4-(3-Fluoro-5-(methylsulfonamidomethyl)phenyl)-1H-pyrrolo[3,2-c]pyridin-2-yl)-1H-indazol-5-yl)pyridin-3-yl)cyclopropanecarboxamide], for which the EC50 in assay [1] stood at 370 nM; in assay [2], 5120 nM; in assay [3], 137 nM; in assay [4], 930 nM.

As for `CS(=O)(=O)NCc1cc(F)cc(-c2nccc3[nH]c(-c4n[nH]c5ccc(-c6cncc(NC(=O)C7CCC7)c6)cc45)cc23)c1` [Compound 497, N-(5-(3-(4-(3-Fluoro-5-(methylsulfonamidomethyl)phenyl)-1H-pyrrolo[3,2-c]pyridin-2-yl)-1H-indazol-5-yl)pyridin-3-yl)cyclobutanecarboxamide], the EC50 in assay [1] is 188 nM; in assay [2], 599 nM; in assay [3], 27 nM; in assay [4], 492 nM.

Regarding `CS(=O)(=O)NCc1cc(F)cc(-c2nccc3[nH]c(-c4n[nH]c5ccc(-c6cncc(NC(=O)C7CCCC7)c6)cc45)cc23)c1` [Compound 498, N-(5-(3-(4-(3-Fluoro-5-(methylsulfonamidomethyl)phenyl)-1H-pyrrolo[3,2-c]pyridin-2-yl)-1H-indazol-5-yl)pyridin-3-yl)cyclopentanecarboxamide], the concentration giving a half-maximal response (EC50) in assay [1] turned out to be 741 nM; in assay [2] it was 3500 nM; in assay [3], 103 nM; in assay [4] it was 1140 nM.

For `CS(=O)(=O)NCc1cc(F)cc(-c2nccc3[nH]c(-c4n[nH]c5ccc(-c6ccccn6)cc45)cc23)c1` [Compound 504, N-(3-Fluoro-5-(2-(5-(pyridin-2-yl)-1H-indazol-3-yl)-1H-pyrrolo[3,2-c]pyridin-4-yl)benzyl)methanesulfonamide], the half-maximal effective concentration (EC50) in assay [1] was 3610 nM; in assay [2], 2130 nM; in assay [3], greater than 10000 nM; in assay [4] it was 5540 nM. The inhibition at 10 µM in assay [3] worked out at 40.6%.

As to `Fc1cccc(-c2nccc3[nH]c(-c4n[nH]c5ccc(C6CCNCC6)cc45)cc23)c1` [Compound 505, 3-(4-(3-Fluorophenyl)-1H-pyrrolo[3,2-c]pyridin-2-yl)-5-(piperidin-4-yl)-1H-indazole], the concentration giving a half-maximal response (EC50) was found to be 3590 nM in assay [1], 3320 nM in assay [2], 723 nM in assay [3] and 3840 nM in assay [4].

Turning to `Fc1ccc(-c2nccc3[nH]c(-c4n[nH]c5ccc(C6=CCNCC6)cc45)cc23)cc1` [Compound 522, 3-(4-(4-Fluorophenyl)-1H-pyrrolo[3,2-c]pyridin-2-yl)-5-(1,2,3,6-tetrahydropyridin-4-yl)-1H-indazole], the EC50 in assay [1] was 3780 nM; in assay [2], 1430 nM; in assay [3], greater than 10000 nM; in assay [4], 2170 nM. The inhibition at 10 µM in assay [3] is 4.1%.

As for `Fc1ccc(-c2nccc3[nH]c(-c4n[nH]c5ccc(-c6cn[nH]c6)cc45)cc23)cc1` [Compound 523, 3-(4-(4-Fluorophenyl)-1H-pyrrolo[3,2-c]pyridin-2-yl)-5-(1H-pyrazol-4-yl)-1H-indazole], the EC50 was 111 nM in assay [1], 161 nM in assay [2], 92 nM in assay [3] and 837 nM in assay [4].

Turning to `CN(C)CCOc1cncc(-c2ccc3[nH]nc(-c4cc5c(-c6ccc(F)cc6)nccc5[nH]4)c3c2)c1` [Compound 531, 2-((5-(3-(4-(4-fluorophenyl)-1H-pyrrolo[3,2-c]pyridin-2-yl)-1H-indazol-5-yl)pyridin-3-yl)oxy)-N,N-dimethylethan-1-amine], the EC50 in assay [1] came out at 3380 nM; in assay [2], 908 nM; in assay [3] it was 7050 nM; in assay [4], 1180 nM.

The values above are taken from patent US10463651B2, “3-(1H-pyrrolo[3,2-C]pyridin-2-YL)-1H-indazoles and therapeutic uses thereof” (Samumed, LLC, priority 2015, dated 2019).
